According to patent publication US10213391B2, “Pharmaceutical compositions comprising hemp and turmeric to treat pain and inflammation” (priority 2014, dated 2019):

Columns and labels:
[1] = test system: Chronic constriction injury (CCI) in mice; details: p.o., twice per day for three weeks, cited from earlier work
[2] = test system: pain; assay: 7 volunteer pain relief study; type: in vivo, human; details: for Relief: single agent: Curcumin 30 mg or Hemp CBD 20 mg, formulations contain magnesium
Description: All of the above formulations contain magnesium. Patients received the combination of CBD and curcumin in the following formulation comprising: (a) hemp derived terpiniods and oil; (b) turmeric as curcumin and; (c) magnesium.

[3] = chronic, but not acute, treatment 5, 15 or 45 mg/kg

SMILES: COc1cc(/C=C/C(=O)CC(=O)/C=C/c2ccc(O)c(OC)c2)ccc1O [Curcumin, curcumin]
- spinal monoamine (or metabolite) contents ([1]; chronic treatment 5, 15 or 45 mg/kg): increasing
- mechanical allodynia (von Frey hair) [1, 3]: alleviated
- thermal hyperalgesia (hot plate test) [1, 3]: alleviated
- Relief ([2]; Subject 1, (California), joint pain): Partial relief
- Relief ([2]; Subject 2, (California), migraine): Partial relief
- Relief ([2]; Subject 4, (Colorado), back pain): Partial relief
- Relief ([2]; Subject 5, (California), back pain): Partial relief
- pain relief ([2]; summary of the 7 volunteer study, patients taking the agents singly): partial pain relief
